These are literature values, as cited in patent publication US8067462B2, “Processes of making sesquiterpenoid tashironin, its analogs and their uses” (The Trustees of Columbia University in the City of New York, priority 2004, dated 2011).

This data set relates to neurite growth.

On to `C[C@@H]1CC[C@@]2(O)C13CC(=O)C1(C)C2(C)CO[C@]1(O)[C@@H]3O` [11-O-debenzoyltashironin], for which, where the note is “promotes neurite growth at concentrations as low as (Huang et al. 2001)”, the “concentration at which neurite growth is promoted” value is at least 0.1 µmol.

Take tashironin: the neurotrophic activity result (reported on isolation from the wood of illicium tashiroi (Fukuyama et al. 1995)) was “inactive”.
